Patent US8580778B2, “Substituted dihydropyrazolones and their use” (Bayer Intellectual Property GmbH, priority 2008, dated 2013)
Counter-ions that a name gives are not always drawn.

What follows are compounds tested against HIF prolyl hydroxylase (assay: Inhibition of the activity of HIF prolyl hydroxylase (VBC complex binding test)). Details: cell lysate containing prolyl hydroxylase.
Format: biochemical
Experimental: 1.a) Inhibition of the Activity of HIF Prolyl Dydroxylase:
Hydroxylated HIF bonds specifically to the von Hippel-Lindau protein-elongin B-elongin C complex (VBC complex). This interaction occurs only if HIF is hydroxylated on a conserved prolyl radical. It is the basis for the biochemical determination of HIF prolyl hydroxylase activity. The test is carried out as described [Oehme F., Jonghaus W., Narouz-Ott L., Huetter J., Flamme I., Anal. Biochem. 330 (1), 74-80 (2004)]:
A clear 96-well microtiter plate coated with NeutrAvidin HBC (Pierce) is incubated with blocker casein for 30 minutes. The plate is then washed three times with 200 μl each time of wash buffer (50 mM Tris, pH 7.5, 100 mM NaCl, 10% (v/v) blocker casein, 0.05% (v/v) Tween 20) per well. The peptide biotin-DLDLEMLAPYIPMDDDFQL (Eurogentec, 4102 Seraing, Belgium) is added in a concentration of 400 nM in 100 μl wash buffer. This peptide serves as a substrate for the prolyl hydroxylation and is bonded to the microtiter plate. After incubation for 60 minutes, the plate is washed three times with wash buffer, incubated with 1 mM biotin in blocker casein for 30 minutes and then washed again three times with wash buffer.
To carry out the prolyl hydroxylase reaction, the peptide substrate bonded to the plate is incubated with a cell lysate containing prolyl hydroxylase for 1 to 60 minutes. The reaction takes place in 100 μl reaction buffer (20 mM Tris, pH 7.5, 5 mM KCl, 1.5 mM MgCl2, 1 μM-1 mM 2-oxoglutarate, 10 μM FeSO4, 2 mM ascorbate) at room temperature. The reaction mixture moreover contains various concentrations of the prolyl hydroxylase inhibitor to be tested. The test substance is preferably, but not exclusively, employed at concentrations of between 1 nM and 100 μM. The reaction is stopped by washing the plate three times with wash buffer.
For quantitative determination of the prolyl hydroxylation, a fusion protein which contains both thioredoxin from E. coli and the VBC complex in 80 μl bonding buffer (50 mM Tris, pH 7.5, 120 mM NaCl) is added. After 15 minutes, 10 μl of a solution of polyclonal anti-thioredoxin antibodies from rabbit in bonding buffer are added. After a further 30 minutes, 10 μl of a solution of anti-rabbit immunoglobulin coupled to horseradish peroxidase in bonding buffer are added. After incubation at room temperature for 30 minutes, the plate is washed three times with wash buffer in order to remove non-bonded VBC complex and antibodies. To determine the amount of bonded VBC complex, the plate is incubated with TMB for 15 minutes. The colour reaction is ended by addition of 100 μl 1 M sulphuric acid. The amount of bonded VBC complex is determined by measurement of the optical density at 450 nm. It is proportional to the amount of hydroxylated proline in the peptide substrate.
Alternatively, a VBC complex coupled to europium (Perkin Elmer) can be used for detection of the prolyl hydroxylation. In this case, the amount of bonded VBC complex is determined by the fluorescence with respect to time. The use of VBC complex labelled with [^35S]-methionine is moreover possible. For this, the radioactively labelled VBC complex can be prepared by in vitro transcription-translation in reticulocyte lysate.

IC50 [nM]	Compound
540	O=C(O)C1CN(c2cc(-n3[nH]cc(-n4ccnc4)c3=O)ncn2)C1 [Example 5, 1-{6-[4-(1H-Imidazol-1-yl)-5-oxo-2,5-dihydro-1H-pyrazol-1-yl]pyrimidin-4-yl}azetidine-3-carboxylic acid]
760	CN(C)C1CN(c2cc(-n3[nH]cc(-n4ccnn4)c3=O)ncn2)C1 [Example 9, 2-{6-[3-(Dimethylamino)azetidin-1-yl]pyrimidin-4-yl}-4-(1H-1,2,3-triazol-1-yl)-1,2-dihydro-3H-pyrazol-3-one dihydrochloride]
130	N#Cc1cn(-c2c[nH]n(-c3cc(N4CCC(F)(F)C4)ncn3)c2=O)nn1 [Example 17, 1-{2-[6-(3,3-Difluoropyrrolidin-1-yl)pyrimidin-4-yl]-3-oxo-2,3-dihydro-1H-pyrazol-4-yl}-1H-1,2,3-triazole-4-carbonitrile]
880	O=c1c(-n2ccnn2)c[nH]n1-c1cc(N2CCN(C3CCC3)CC2)ncn1 [Example 2, 2-[6-(4-Cyclobutylpiperazin-1-yl)pyrimidin-4-yl]-4-(1H-1,2,3-triazol-1-yl)-1,2-dihydro-3H-pyrazol-3-one]
180	N#Cc1cn(-c2c[nH]n(-c3cc(N4CCCOCC4)ncn3)c2=O)cn1 [Example 25, 1-{2-[6-(1,4-Oxazepan-4-yl)pyrimidin-4-yl]-3-oxo-2,3-dihydro-1H-pyrazol-4-yl}-1H-imidazole-4-carbonitrile]
70	N#Cc1cn(-c2c[nH]n(-c3cc(N4CC(F)(F)C4)ncn3)c2=O)nn1 [Example 21, 1-{2-[6-(3,3-Difluoroazetidin-1-yl)pyrimidin-4-yl]-3-oxo-2,3-dihydro-1H-pyrazol-4-yl}-1H-1,2,3-triazole-4-carbonitrile]
170	N#Cc1cn(-c2c[nH]n(-c3cc(N4CCCCO4)ncn3)c2=O)nn1 [Example 29, 1-{2-[6-(1,2-Oxazinan-2-yl)pyrimidin-4-yl]-3-oxo-2,3-dihydro-1H-pyrazol-4-yl}-1H-1,2,3-triazole-4-carbonitrile]
380	N#Cc1cn(-c2c[nH]n(-c3cc(N4CCCOCC4)ncn3)c2=O)nn1 [Example 26, 1-{2-[6-(1,4-Oxazepan-4-yl)pyrimidin-4-yl]-3-oxo-2,3-dihydro-1H-pyrazol-4-yl}-1H-1,2,3-triazole-4-carbonitrile]
